Test results reported in PubChem BioAssay (NCI).
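Interpolation was linear, between the two tested concentrations surrounding the appropriate level; five concentrations were tested over 48 hours in 96-well plates. GI50 = concentration required for 50% inhibition of growth. TGI: concentration producing complete growth inhibition.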

Experiments:
Experiment in all cases: NCI tumour cell line growth inhibition, 48 h
OVCAR-8 ovarian = tested on: OVCAR-8 ovarian
COLO 205 colon = tested on: COLO 205 colon
IGROV1 ovarian = tested on: IGROV1 ovarian
EKVX NSCLC = tested on: EKVX NSCLC
HS 578T breast = tested on: HS 578T breast
MDA-MB-435 = tested on: MDA-MB-435
NCI-H460 lung = tested on: NCI-H460 lung
DU-145 prostate = tested on: DU-145 prostate
SK-MEL-2 melanoma = tested on: SK-MEL-2 melanoma
TK-10 renal = tested on: TK-10 renal

Row | Compound | TGI (OVCAR-8 ovarian) [µM] | TGI (COLO 205 colon) [µM] | TGI (IGROV1 ovarian) [µM] | TGI (EKVX NSCLC) [µM] | TGI (HS 578T breast) [µM] | TGI (MDA-MB-435) [µM] | TGI (NCI-H460 lung) [µM] | TGI (DU-145 prostate) [µM] | TGI (SK-MEL-2 melanoma) [µM] | TGI (TK-10 renal) [µM] | GI50 (OVCAR-8 ovarian) [µM] | GI50 (COLO 205 colon) [µM] | GI50 (IGROV1 ovarian) [µM] | GI50 (EKVX NSCLC) [µM] | GI50 (HS 578T breast) [µM] | GI50 (MDA-MB-435) [µM] | GI50 (NCI-H460 lung) [µM] | GI50 (DU-145 prostate) [µM] | GI50 (SK-MEL-2 melanoma) [µM] | GI50 (TK-10 renal) [µM]
1 | O=C(NC1=C(Cl)C(=O)c2ccccc2C1=O)C(=O)C(C(=O)c1ccc2ccccc2c1)C1OC(=O)c2ccccc21 (centres undefined) | 24.5 | 18.5 | 27 | 24.7 | 45.2 | 3.33 | 12 | 23.9 | 19.1 | 65.1 |  |  |  |  |  |  |  |  |  | 
2 | COc1ccc(-c2c(-c3ccc(C#N)c(F)c3)nc(N3CCC(N)CC3)n(C)c2=O)cc1F | > 100 | 31.1 | 41.8 | 52.8 | 44.6 | 28.9 | 37.1 | > 100 | 38.6 | 32.4 | 33.6 | 13.3 | 16.3 | 15.5 | 13.2 | 14.4 | 19.1 | 25.5 | 18.5 | 12.8
3 | CN1CCN(c2ccc(NC3=CC(=O)c4ncncc4C3=O)cc2)CC1 | 1.57 | 4.07 | 0.542 | 2.15 | 6.29 | 0.35 | 1.22 | 1.88 | 3.45 | 3.81 | 0.323 | 1.93 | 0.231 | 0.56 | 1.74 | 0.191 | 0.354 | 0.639 | 1.54 | 2.01
4 | CC/C=C\C[C@H]1C/C=C2/C(=O)C(Cl)=C[C@@H]2C/C=C\CCCC(=O)O1 | 2.68 | 0.958 | 1.94 | 4.62 | 25 | 1.43 | 1.89 | 1.85 | 1.13 | 1.41 | 0.143 | 0.467 | 0.605 | 0.805 | 0.698 | 0.169 | 0.545 | 0.517 | 0.453 | 0.597
5 | C(=N\Nc1ccc2ccccc2n1)/c1ccccn1 | > 100 | 8.96 | 8.66 | > 32.9 | > 52.9 | > 52.7 |  | > 37.7 | > 100 | > 100 | 0.463 | 0.41 | 0.388 | 0.37 | 2.36 | 1.01 | 0.366 | 0.374 | 0.511 | 0.375
6 | COC(=O)c1cc(-c2ccc(S(C)(=O)=O)cc2)[nH]c1N/N=C/c1c(Cl)cccc1Cl | 98.1 | 4.72 | 67.3 | > 76.1 | 3.45 | 0.578 | 10.3 | 5.53 | > 52.9 | 38.3 | 1.27 | 0.491 | 0.482 | 1.11 | 0.318 | 0.214 | 0.367 | 0.732 | 0.765 | 0.988
7 | C[C@]12CCC(=O)C[C@@H]1CC[C@@H]1[C@@H]2CC[C@]2(C)[C@@H](OC(=O)N(CCCl)N=O)CC[C@@H]12 | 24 | 4.72 | 12.8 | > 41.1 | 16.9 | 18.1 | 2.99 | 3.95 | 16.8 | 27.7 | 1.36 | 1.7 | 1.47 | 4.88 | 2.13 | 1.07 | 0.06 | 0.405 | 3.47 | 3.85
8 | CCC(c1ccccc1)c1cc(C(C)(C)C)cc(C(C)(C)C)c1O (centres undefined) | 31.1 | 34.2 | 30.7 | 32.2 | 32.3 | 32 | 31.3 | 33.2 | 29 | 28.8 |  |  |  |  |  |  |  |  |  | 
9 | CC(=O)c1c(C)c2cnc(Nc3ccc(N4CCNCC4)cn3)nc2n(C2CCCC2)c1=O | 28.7 | 17.6 | 25 | 26.3 | 42.2 | 22 | 18.4 | 21.7 | 25.3 | 16.3 | 12.9 | 1.33 | 7.35 | 12.5 | 14.9 | 6.5 | 1.79 | 9.82 | 11.5 | 0.533
10 | COC(=O)c1cc2cc(/C=C3/SC(=S)N(N(C(C)=O)C(C)=O)C3=O)oc2n1Cc1ccccc1 | 42.8 | > 100 | 57.3 | > 100 | 76.6 | > 100 | > 100 | 73.4 | > 100 | 35.1 | 18.3 | 77.6 | 22.4 | 31 | 24.2 | 29 | 19.3 | 20.7 | 40.3 | 17.4
11 | N#Cc1c(N)nc(N2CCOCC2)c(C#N)c1-c1c(Cl)cccc1Cl | 63.2 | 22.8 | 5.08 | > 100 | 63.9 | 3.8 | 44.6 | > 100 | 93.2 | > 100 | 14.2 | 7.14 | 1.98 | 7.92 | 5.07 | 1.57 | 6.39 | 16.9 | 6.31 | 20.9
12 | COc1cc(C2NC(=O)C(C#N)=C(Nc3cccc(C)c3)S2)ccc1O (centres undefined) | > 100 | > 100 | > 100 | > 100 | > 100 | > 100 | > 100 | > 100 | > 100 | > 100 | > 100 | > 100 | > 100 | > 100 | > 100 | > 100 | > 100 | > 100 | > 100 | > 100
13 | O=C1/C(=C/c2ccc(C(F)(F)F)cc2)COc2ccc(O)c(O)c21 | 2.96 | 3.06 | 1.84 | 2.99 | 6.02 | 2.68 | 3.9 | 3.19 | 3.99 | 3.03 | 0.846 | 1.58 | 0.476 | 1.61 | 2.2 | 1.26 | 1.85 | 1.6 | 1.83 | 1.64
14 | CC1=C[C@@H]2c3c(c(O)c(O)c4oc5cc(O)cc(O)c5c(=O)c34)[C@@H](c3cc(O)c(O)c4oc5cc(O)cc(O)c5c(=O)c34)[C@@H]2C(C)(C)C1 | 18.8 | 11.2 | 22.2 | 15.6 | 21 | 13.7 | 8.31 | 16.6 | 21 | 19.2 | 4.31 | 2.86 | 4.01 | 5 | 3.42 | 3.49 | 1.1 | 5.53 | 5.99 | 5.85
15 | FC(F)(F)c1cccc(-c2[nH]ncc2-c2nnnn2-c2ccccc2)c1 | 90.2 | 13 | 15.4 | 29.7 | 28.4 | 5.89 | 12.8 | 21.5 | 31 | 20 | 7.77 | 3.49 | 3.96 | 8.43 | 4.85 | 1.86 | 3.32 | 7.43 | 12.8 | 6.6
16 | COc1cnccc1Nc1nc(-c2nn(Cc3c(F)cc(OCCO)cc3F)c3ccccc23)ncc1OC | 5.82 | > 100 | 16.4 | 61.6 | 26.3 | 6.18 | 10.6 | 11.5 | 27 | 27.7 | 2.03 | 17.7 | 2.89 | 13.5 | 9.08 | 1.73 | 2.06 | 3.11 | 11 | 14.5
17 | COc1ccc(-c2[nH]ncc2Nc2cc(OC)c(OC)c(OC)c2)cc1 | > 100 | 6.32 | > 100 | > 49.4 | 4.65 | 0.395 | > 63.6 | 64.1 | > 100 | 96.9 | 6.36 | 1.61 | 2.51 | 1.93 | 1.3 | 0.177 | 2.68 | 4 | 10.3 | > 32
18 | CCS(=O)(=O)c1ccc(OC)c(Nc2ncc(-c3cccc(F)c3)o2)c1 | > 25 | > 25 | > 25 | > 25 | > 22.3 | > 25 | > 25 | > 25 | > 25 | > 25 | > 25 | > 25 | > 25 | > 25 | 2.5 | > 25 | > 25 | > 25 | > 25 | > 25
